The results in this text go back to PubChem BioAssay (NCI).

Some test systems named below: SN12C renal; MCF7 breast; 786-0 renal; K-562 leukemia; SW-620 colon; HOP-62 NSCLC; LOX IMVI melanoma; SK-MEL-5 melanoma; SK-MEL-2 melanoma; HL-60(TB) leukemia; COLO 205 colon; SF-539 CNS; M14 melanoma; NCI-H23 lung; DU-145 prostate; HS 578T breast; NCI/ADR-RES ovarian; HOP-92 NSCLC; UACC-257 melanoma; RXF 393 renal.
What all share (test): NCI anticancer screen, dose series, 48 h

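1) Cells in 96-well plates. 2) Compound, 48 h, 5 concentrations. 3) Linear interpolation between surrounding doses. 4) Unreached endpoint = highest concentration. TGI is the concentration that stops growth completely.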

For the compound `CC1(C)CC[C@]2(C(=O)O)CC[C@]3(C)C(=CC[C@@H]4[C@@]5(C)C[C@H](O)[C@H](O)[C@@](C)(CO)C5=CC[C@]43C)[C@@H]2C1`, the TGI with SN12C renal, in the assay on MCF7 breast, in the assay on 786-0 renal, with K-562 leukemia, in the assay on SW-620 colon and in the assay on HOP-62 NSCLC was over 100 µM each time. In addition, the TGI was over 100 µM with LOX IMVI melanoma; over 100 µM in the assay on SK-MEL-5 melanoma; over 100 µM with SK-MEL-2 melanoma; over 100 µM in the assay with HL-60(TB) leukemia; 42.4 µM in the assay on COLO 205 colon; over 100 µM in the assay on SF-539 CNS. The TGI in the assay on M14 melanoma, in the assay with NCI-H23 lung, in the assay on DU-145 prostate, with HS 578T breast, in the assay on NCI/ADR-RES ovarian and in the assay on HOP-92 NSCLC was over 100 µM each time. For the same compound, the TGI in the assay on UACC-257 melanoma is over 100 µM.

In the case of `O=C(O)C1(C(=O)O)CC1(C(=O)O)C(=O)O`, the TGI with SN12C renal, with MCF7 breast, with 786-0 renal, in the assay with K-562 leukemia, in the assay with SW-620 colon and in the assay with HOP-62 NSCLC was over 100 µM in each case. The TGI with LOX IMVI melanoma, in the assay on SK-MEL-5 melanoma, with RXF 393 renal, in the assay with SK-MEL-2 melanoma, with HL-60(TB) leukemia and with COLO 205 colon was over 100 µM throughout. The TGI in the assay on SF-539 CNS, in the assay with M14 melanoma, in the assay with NCI-H23 lung, with DU-145 prostate, with HS 578T breast and in the assay on NCI/ADR-RES ovarian was over 100 µM in each case. This compound came in with a TGI in the assay with UACC-257 melanoma of over 100 µM.

Take `Cc1ccc(S(=O)(=O)OC2=C/C(=N\c3onc(C)c3C)c3ccccc3C2=O)cc1`: the TGI with SN12C renal is 37.4 µM; in the assay on MCF7 breast, 33.5 µM; in the assay on 786-0 renal, over 100 µM; in the assay on K-562 leukemia, 18.9 µM; with SW-620 colon, 80.1 µM; with HOP-62 NSCLC, 54.8 µM. The TGI in the assay with LOX IMVI melanoma was 37.9 µM; with SK-MEL-5 melanoma, 38.7 µM; with SK-MEL-2 melanoma, 26 µM; in the assay with HL-60(TB) leukemia, over 100 µM; in the assay on COLO 205 colon, over 100 µM; with SF-539 CNS, 79 µM. Besides, the TGI in the assay on M14 melanoma is over 100 µM; in the assay with NCI-H23 lung, 73.8 µM; in the assay with DU-145 prostate, over 100 µM; in the assay with HS 578T breast, over 100 µM; with NCI/ADR-RES ovarian it was 77.1 µM; in the assay with HOP-92 NSCLC it was 33.2 µM. The same compound yielded a TGI with UACC-257 melanoma of 34.4 µM.

Regarding `COC1O[C@@H]2CCN3C(=O)[C@@H](OC(=O)c4ccc([N+](=O)[O-])cc4)[C@H]1C23` (some centres undefined), the TGI with SN12C renal, in the assay with MCF7 breast, in the assay on 786-0 renal, with K-562 leukemia, in the assay on SW-620 colon and in the assay on HOP-62 NSCLC was over 100 µM each time. The TGI in the assay on LOX IMVI melanoma, with SK-MEL-5 melanoma, in the assay with RXF 393 renal, in the assay with COLO 205 colon, in the assay on SF-539 CNS and in the assay on M14 melanoma was over 100 µM throughout. The TGI in the assay with NCI-H23 lung, with DU-145 prostate, in the assay with HS 578T breast, in the assay on NCI/ADR-RES ovarian, with HOP-92 NSCLC and with UACC-257 melanoma was over 100 µM each time.

`CCOC(=O)c1nc2ccccc2nc1NCc1ccc(OC)cc1`: the TGI in the assay on MCF7 breast, in the assay on 786-0 renal, in the assay with K-562 leukemia, in the assay with SW-620 colon, with HOP-62 NSCLC and with LOX IMVI melanoma was over 100 µM each time. Besides, the TGI with SK-MEL-5 melanoma is over 100 µM; with RXF 393 renal it was 71.5 µM; in the assay with HL-60(TB) leukemia it was over 100 µM; in the assay with COLO 205 colon it was over 100 µM; in the assay with SF-539 CNS it was over 100 µM; in the assay with NCI-H23 lung, over 100 µM. Besides, the TGI in the assay with DU-145 prostate, with HS 578T breast, with NCI/ADR-RES ovarian, in the assay with HOP-92 NSCLC and in the assay on UACC-257 melanoma was over 100 µM throughout.

Regarding `N#CC1=C(S)N(C2OC(CO)C(O)C(O)C2O)C(c2ccccc2)=CC1c1ccccc1` (centres undefined), the TGI in the assay with SN12C renal, in the assay on MCF7 breast, in the assay with 786-0 renal, in the assay with K-562 leukemia, in the assay with SW-620 colon and with HOP-62 NSCLC was over 100 µM in each case. For the same compound, the TGI with LOX IMVI melanoma is 86.6 µM; in the assay on SK-MEL-5 melanoma, 43.6 µM; in the assay on RXF 393 renal, 92.7 µM; in the assay on HL-60(TB) leukemia, over 100 µM; in the assay on COLO 205 colon, over 100 µM; with SF-539 CNS, over 100 µM. The TGI in the assay on M14 melanoma, with NCI-H23 lung, with DU-145 prostate, in the assay on HS 578T breast, in the assay with NCI/ADR-RES ovarian and with HOP-92 NSCLC was over 100 µM throughout. This compound also gave a TGI in the assay with UACC-257 melanoma of over 100 µM.

Consider `CC(C)OCC(O)COc1ccc2ccc(=O)oc2c1` (centres undefined), for which the TGI in the assay on SN12C renal, in the assay with MCF7 breast, with 786-0 renal, in the assay with K-562 leukemia, in the assay on SW-620 colon and with HOP-62 NSCLC was over 100 µM throughout. The TGI in the assay on LOX IMVI melanoma, in the assay on SK-MEL-5 melanoma, in the assay with HL-60(TB) leukemia, in the assay on COLO 205 colon, in the assay on M14 melanoma and in the assay with NCI-H23 lung was over 100 µM in each case. The TGI with DU-145 prostate, with HS 578T breast, in the assay on NCI/ADR-RES ovarian, with HOP-92 NSCLC and in the assay with UACC-257 melanoma was over 100 µM throughout.

Consider `O=C1c2cccnc2S(=O)N1Cc1ccccc1` (centres undefined), for which the TGI with SN12C renal, in the assay with MCF7 breast, with 786-0 renal, in the assay with K-562 leukemia, in the assay with SW-620 colon and with SK-MEL-5 melanoma was over 100 µM throughout. In addition, the TGI in the assay with RXF 393 renal, in the assay on COLO 205 colon, with SF-539 CNS, in the assay with M14 melanoma, in the assay with NCI-H23 lung and in the assay on DU-145 prostate was over 100 µM in each case. Also, the TGI in the assay with HS 578T breast, with NCI/ADR-RES ovarian, with HOP-92 NSCLC and with UACC-257 melanoma was over 100 µM each time.

On to `NCC#CCNCCCN1CC1`, for which the TGI in the assay on SN12C renal, in the assay with MCF7 breast, with 786-0 renal, in the assay on K-562 leukemia, in the assay with SW-620 colon and in the assay on HOP-62 NSCLC was over 100 µM throughout. The TGI in the assay on LOX IMVI melanoma, in the assay with SK-MEL-5 melanoma, with SK-MEL-2 melanoma, in the assay with HL-60(TB) leukemia, with COLO 205 colon and in the assay on SF-539 CNS was over 100 µM in each case. Moreover, the TGI in the assay on M14 melanoma, with NCI-H23 lung, with DU-145 prostate, in the assay with HS 578T breast, in the assay with NCI/ADR-RES ovarian and in the assay with HOP-92 NSCLC was over 100 µM in each case. Moreover, the TGI in the assay with UACC-257 melanoma is over 100 µM.

For the compound `CC(NC(=O)C(N)Cc1ccc(O)cn1)C(=O)O` (centres undefined), the TGI in the assay with SN12C renal, with MCF7 breast, in the assay on 786-0 renal, with K-562 leukemia, in the assay on SW-620 colon and in the assay on HOP-62 NSCLC was over 100 µM throughout. For the same compound, the TGI in the assay with LOX IMVI melanoma, in the assay on SK-MEL-5 melanoma, in the assay with RXF 393 renal, in the assay on HL-60(TB) leukemia, in the assay with COLO 205 colon and in the assay on SF-539 CNS was over 100 µM in each case. Besides, the TGI in the assay on NCI-H23 lung, in the assay on DU-145 prostate, in the assay with HS 578T breast, in the assay on NCI/ADR-RES ovarian, with HOP-92 NSCLC and in the assay with UACC-257 melanoma was over 100 µM throughout.

`C=C(C)CC1=C(OCC)C(OC)(OCC)C1=O` (centres undefined): the TGI in the assay on SN12C renal, in the assay on MCF7 breast, in the assay with 786-0 renal, in the assay with SW-620 colon, in the assay on HOP-62 NSCLC and in the assay with LOX IMVI melanoma was over 100 µM in each case. Further, the TGI in the assay with SK-MEL-5 melanoma, in the assay on SK-MEL-2 melanoma, with HL-60(TB) leukemia, with COLO 205 colon, in the assay with SF-539 CNS and with M14 melanoma was over 100 µM in each case. For the same compound, the TGI in the assay with NCI-H23 lung, in the assay on DU-145 prostate, with HS 578T breast, in the assay with NCI/ADR-RES ovarian, in the assay on HOP-92 NSCLC and with UACC-257 melanoma was over 100 µM throughout.

For `C=CC1ON(C)CCc2cc(OC)c(OC)cc21` (centres undefined), the TGI in the assay on SN12C renal, with MCF7 breast, with 786-0 renal, in the assay with K-562 leukemia, with SW-620 colon and in the assay with HOP-62 NSCLC was over 100 µM in each case. For the same compound, the TGI with LOX IMVI melanoma, in the assay with SK-MEL-5 melanoma, in the assay on HL-60(TB) leukemia, with COLO 205 colon, in the assay with SF-539 CNS and in the assay on M14 melanoma was over 100 µM in each case. For the same compound, the TGI with NCI-H23 lung, in the assay with DU-145 prostate, in the assay on HS 578T breast, in the assay with NCI/ADR-RES ovarian, in the assay with HOP-92 NSCLC and in the assay on UACC-257 melanoma was over 100 µM each time.

As for `O=C(C#CP(=O)(O)c1ccccc1)c1ccccc1`, the TGI with SN12C renal, in the assay on MCF7 breast, in the assay on 786-0 renal, in the assay on K-562 leukemia, in the assay with SW-620 colon and with HOP-62 NSCLC was over 100 µM in each case. In addition, the TGI in the assay on LOX IMVI melanoma, with SK-MEL-5 melanoma, with SK-MEL-2 melanoma, in the assay with COLO 205 colon, in the assay on SF-539 CNS and with M14 melanoma was over 100 µM in each case. For the same compound, the TGI in the assay on NCI-H23 lung, with DU-145 prostate, in the assay on HS 578T breast, in the assay with NCI/ADR-RES ovarian, in the assay with HOP-92 NSCLC and with UACC-257 melanoma was over 100 µM each time.

For the compound `COc1ccc(C(=O)N2CCc3c([nH]c4ccccc34)C2C(=O)O)o1` (centres undefined), the TGI in the assay on SN12C renal, in the assay on MCF7 breast, with 786-0 renal, in the assay on K-562 leukemia, with SW-620 colon and in the assay with HOP-62 NSCLC was over 10 µM throughout. Besides, the TGI with SK-MEL-5 melanoma, in the assay on HL-60(TB) leukemia, in the assay with COLO 205 colon, in the assay on SF-539 CNS, in the assay on M14 melanoma and in the assay on DU-145 prostate was over 10 µM throughout. In addition, the TGI in the assay with HS 578T breast, in the assay on NCI/ADR-RES ovarian, with HOP-92 NSCLC and in the assay with UACC-257 melanoma was over 10 µM throughout.

For `CN(c1ccccc1)S(=O)(=O)c1ccccc1[N+](=O)[O-]`, the TGI in the assay with SN12C renal, in the assay on MCF7 breast, in the assay with 786-0 renal, with K-562 leukemia, with SW-620 colon and with HOP-62 NSCLC was over 100 µM each time. For the same compound, the TGI in the assay on LOX IMVI melanoma, with RXF 393 renal, in the assay with SK-MEL-2 melanoma, with HL-60(TB) leukemia, in the assay on COLO 205 colon and in the assay with SF-539 CNS was over 100 µM in each case. The TGI in the assay with M14 melanoma, in the assay on NCI-H23 lung, with DU-145 prostate, with HS 578T breast, in the assay on NCI/ADR-RES ovarian and in the assay on UACC-257 melanoma was over 100 µM each time.
